From patent publication US20050009772A1, “Methods and compositions for the treatment of glaucoma and other retinal diseases” (The Regents of the University of California, priority 2003, published 2005)
“Also recorded” adds a separate entry of the source.

Tests used:
HSP72 [1] = experiment: Quantitative immunohistochemical analysis of HSP72 in the RGCL after 1 week of IOP elevation (Experiment 3); assay type: in vivo, rat; conditions: quercetin = co-administered with GGA
Method: TdT-mediated biotin-dUTP nick end labeling (TUNEL) and immunohistochemical analysis for HSP72 and HSC70 were performed.
Animals were deeply anesthetized with intramuscular injections of 0.8 ml/kg of a cocktail of 5 ml ketamine (100 mg/ml), 2.5 ml xylazine (20 mg/ml), 1.0 ml acepromazine (10 mg/ml), and 1.5 ml normal saline. Then they were transcardially perfused with 4% paraformaldehyde in 0.1 M phosphate buffer. The enucleated eyeballs were immersed in fixative for 1 hour, bisected and post-fixed overnight. The eyes were embedded in paraffin and sectioned at a four-μm thickness along the vertical meridian through the optic nerve head. After deparaffinization and hydration, a species-specific Vectastain ABC kit (Vector Laboratories, Inc., Burlingame, Calif.) was chosen to match the species of primary antibody and the manufacturer's procedures were followed. The tissue sections were incubated with blocking serum solution in PBS for 1 hour. This was followed by incubation with primary antibody at 4° C overnight. The antibodies were mouse monoclonal antibody against HSP72 (1:500; StressGen Biotechnologies Corp., Victoria, British Columbia, Canada), goat polyclonal antibody against HSP72 (1:1000; Santa Cruz Biotechnology, Inc., Santa Cruz, Calif.) or rat monoclonal antibody against HSC70 (1:200; StressGen). Antigen-antibody complexes were detected by an avidin-biotin-peroxidase technique (Vectastain ABC Kit; Vector Laboratories). Diaminobenzidine (DAB) was used to produce a brown color in the target tissue and the slides were permanently mounted. As a negative control, alternate retinal section was incubated with blocking solution by replacing the primary antibody or with anti-rabbit secondary antibody by replacing the original secondary antibody.
Immunohistochemical staining was analyzed quantitatively with a computer-assisted image processing unit (Image-Pro Plus software, Media Cybernetics, Silver Spring, Md.) and the “count-measure” function. Images of immuno-stained sections were captured with a digital camera (Cool snap, RS Photometric, Tucson, Ariz.) attached to the microscope (Axio plan, Carl Zeiss, Oberkochen, Germany) at 630× magnification under oil immersion. The system was calibrated according to the supplier's manual before the analysis. For each digital image, all individual cells in the RGCL were marked by a masked examiner and the optical density of each cell was measured. The relative intensities of cells in the RGCL were measured and averaged (±SEM) to yield a single value representing one retina.

HSP72 [2] = experiment: Western blot for HSP72 in enriched RGC fraction after systemic administration of GGA (Experiment 1); assay type: in vivo, rat; conditions: GGA 200 mg/kg co-administered with quercetin 4 mg/kg daily i.p., 7 days
Method: Experiment 1 was performed to evaluate the expression of HSP72 and HSC70 in RGCs after systemic administration of GGA with Western blot analysis and immunohistochemistry. For Western blotting, twelve rats were equally divided into 6 groups. Three groups of animals were given intraperitoneal injections of GGA 200 mg/kg daily and were euthanized after 1-, 3- or 7 days of administration of GGA. Three control groups were intraperitoneally administered 1) saline-vehicle daily for 7 days; 2) GGA with 4 mg/kg of quercetin (Sigma, St. Louis, Mo.) daily for 7 days; and 3) untreated animals. Enriched RGC fraction was harvested from 2 retinas of each group and used for Western blot analysis. The same experiment for isolation of RGCs and Western blotting was repeated with the other 2 retinas-from each group.
A solution of 80 mg/mL GGA was prepared in saline (Balanced salt solution; Alcon Laboratories, Inc., Fort Worth, Tex.) and emulsified for one hour in an ultrasonic generator (Branson Ultrasonic Corp., Danbury, Conn.) immediately before administration. Intraperitoneal injections of GGA were given at a dose of 200 mg/kg. Saline-vehicle was prepared and administered in the same fashion in vehicle-treated control groups.
A previously described method was modified to partially purify RGCs from other retinal cells in rat retinas.38 Briefly, two dissected rat retinas from each subgroup were washed in 2.5 ml of calcium- and magnesium-free phosphate buffered saline (PBS) at pH 7.4, and incubated in 1.25 ml of PBS containing 0.5 mg/ml trypsin and 0.01% deoxyribonuclease for 15 minutes at 37° C. This was followed by washing the retinas twice in 2.5 ml of minimal essential medium (MEM) containing 10% (vol/vol) fetal bovine serum. The retinas were subsequently washed in 2.5 ml of MEM twice and dissociated in 3 ml of MEM. The cell suspension was then mixed with 1.5 ml of 30% metrizamide (ICN Biomedicals, Inc., Aurora, Ohio) in MEM to a final concentration of 10 metrizamide. This mixture was then overlaid with 5% metrizamide in MEM, and the gradient was centrifuged at 4500 rpm (HB-4; Sorvall Instruments, Newtown, Conn.) for 25 minutes at 4° C. The cells in the 5% to 10% interface were collected. and washed in 25 ml of cold MEM. The washed cells were pelleted by centrifugation at 250×g for 10 minutes (Juan 3000C centrifuge, Winchester, Va.). The cells were then resuspended in 400 μl of MEM buffer, and the protein concentration in the cell suspension was measured with a bicinchoninic acid (BCA) protein assay kit (Pierce, Rockford, Ill.).
Western blot analysis was performed according to the procedure described by Towbin et al.39 Aliquots of 20 μg of protein from enriched RGCs were separated on a 12% SDS-polyacrylamide minigel (Bio-Rad, Hercules, Calif.) and transferred to the membrane (Immunobilon-P; Millipore Corporation, Bedford, Mass.). The membrane was blocked by incubation in 0.1% Tween-20 in 100 mM Tris-buffered saline containing 10% nonfat dried milk for 1 hour. The membranes were incubated with mouse monoclonal antibody against HSP72 (1:1000; StressGen Biotechnologies Corp., Victoria, British Columbia, Canada) or with rat monoclonal antibody against HSC70 (1:1000; StressGen) overnight and then biotinylated rabbit anti-mouse secondary antibody (1:500; Amersham Pharmacia Biotech, Inc., Piscataway, N.J.) or biotinylated goat anti-rat secondary antibody (1:500; Amersham Pharmacia) for 1 hour. This was followed by incubation with streptavidin-conjugated horseradish peroxidase (1:2000; Amersham Pharmacia) for 40 minutes. The immunoreactive bands were detected by chemiluminescence with an enhanced chemiluminescence Western blot reagent (Amersham Pharmacia).

[3] = test system: TUNEL positive cells in the RGCL; experiment: TUNEL analysis of RGCL after 1 week of IOP elevation (Experiment 3); assay type: in vivo, rat; conditions: elevated IOP retinas, 1 week; quercetin = co-administered with GGA
Method: Experiment 3 was performed to investigate the inhibition of apoptosis with GGA administration after 1 week of IOP elevation (n=56).
Rats were anesthetized with intramuscular injections of 0.8 ml/kg of the anesthetic cocktail described above. […] At the end of the procedure, Tobrex ophthalmic ointment (tobramycin 0.3%; Alcon, Fort Worth, Tex.) was applied topically. Five days after intracameral injection of India ink, a dark band at the limbus was noted due to the aggregation of carbon particles in the trabecular meshwork.38 After anesthesia, approximately 200 laser burns were delivered ab externo to the pigmented trabecular band at laser settings of 200 μm diameter, 200 mW power and 0.2 seconds duration. Three weeks after the first laser treatment, another trabecular laser photocoagulation was performed without further injection of ink.
Four-μm thick paraffin embedded sections along the vertical meridian of the optic nerve head were collected and a minimum of 6 retinal sections (8 μm apart) per eyeball was used for counting the number of TUNEL positive cells in the RGCL. Only full length and undamaged retinal sections without oblique orientation were used. The procedures described in the ApopTag Peroxidase In Situ Apoptosis Detection Kit (Intergen Co., Purchase, N.Y.) were followed and diaminobenzidine (Sigma, St. Louis, Mo.) was used as a color substrate. Counting was performed by two masked investigators with light microscopy, and averaged.

[4] = test system: retinal ganglion cells (RGCs); experiment: Density of DTMR-labeled RGCs in rat glaucoma model (Experiment 2); assay type: in vivo; conditions: retinas with IOP elevation, 5 weeks; quercetin = co-administered with GGA
Method: GGA was then given twice a week at the same dose until euthanasia. Sustained elevation of intraocular pressure (IOP) was maintained by performing trabecular laser photocoagulation three weeks after the first photocoagulation. […] IOP and body weight were measured once a week. […] Rats were anesthetized with intramuscular injections of 0.8 ml/kg of the anesthetic cocktail described above. A previously published procedure was modified to produce chronic moderately elevated IOP unilaterally, while the untreated contralateral eye served as the comparative control.40 Animals were injected intracamerally with 10 μl of 35% India ink (Becton Dickinson, Cockeysville, Md.) in 0.01 M PBS after removing a similar volume of aqueous. At the end of the procedure, Tobrex ophthalmic ointment (tobramycin 0.3%; Alcon, Fort Worth, Tex.) was applied topically. Five days after intracameral injection of India ink, a dark band at the limbus was noted due to the aggregation of carbon particles in the trabecular meshwork.38 After anesthesia, approximately 200 laser burns were delivered ab externo to the pigmented trabecular band at laser settings of 200 μm diameter, 200 mW power and 0.2 seconds duration. Three weeks after the first laser treatment, another trabecular laser photocoagulation was performed without further injection of ink. […] A cross section of the optic nerve was made with the needle knife through the opening of the optic nerve sheath, with care not to damage the adjacent blood supply. DTMR crystals were applied to the proximal cut surface of the optic nerve to label RGCs by fast retrograde axonal transport. After euthanasia and enucleation, the retinas were dissected and flattened with four radial cuts (superotemporal, inferotemporal, superonasal, and inferonasal). They were placed with vitreal side up on glass slides, dried in the dark at room temperature overnight and mounted. The retinas were examined with a fluorescence microscope (Axioplan; Carl Zeiss, Oberkochen, Germany) equipped with a filter that permits visualization of rhodamine fluorescence (excitation filter BP 546, barrier filter LP590; Carl Zeiss). The counting of RGCs was conducted by 2 examiners in a masked fashion. […] Each rectangular area measured 0.475 mm×0.362 mm and the total counted area corresponded to approximately 3.1% of each total retinal area. Data are expressed as number of RGCs per mm2.

retinal ganglion cells = experiment: 2DG administration in the animal model of glaucoma; assay type: in vivo; conditions: animal model of glaucoma employed herein
Method: Lan et al., NeuroReport 14:2369-72 (2003). In the hands of the, present inventors, however, 2DG administration was ineffective in protecting retinal ganglion cells in the animal model of glaucoma employed herein. Thus, confirmation of efficacy in a relevant animal model is required before any actual conclusions can be drawn.
Rats were anesthetized with intramuscular injections of 0.8 ml/kg of the anesthetic cocktail described above. A previously published procedure was modified to produce chronic moderately elevated IOP unilaterally, while the untreated contralateral eye served as the comparative control.40 Animals were injected intracamerally with 10 μl of 35% India ink (Becton Dickinson, Cockeysville, Md.) in 0.01 M PBS after removing a similar volume of aqueous. At the end of the procedure, Tobrex ophthalmic ointment (tobramycin 0.3%; Alcon, Fort Worth, Tex.) was applied topically. Five days after intracameral injection of India ink, a dark band at the limbus was noted due to the aggregation of carbon particles in the trabecular meshwork.38 After anesthesia, approximately 200 laser burns were delivered ab externo to the pigmented trabecular band at laser settings of 200 μm diameter, 200 mW power and 0.2 seconds duration. Three weeks after the first laser treatment, another trabecular laser photocoagulation was performed without further injection of ink.

SMILES: O=c1c(O)c(-c2ccc(O)c(O)c2)oc2cc(O)cc(O)c12 [quercetin]
- HSP72 expression (immunoreactive intensity) in the RGCL (HSP72 [1]; control (normal IOP) retinas vs vehicle-alone controls): abolished; also recorded: diminished
- HSP72 expression (immunoreactive intensity) in the RGCL (HSP72 [1]; retinas with IOP elevation, 1 week): significantly reduced; also recorded: abolished
- expression of HSP72 in RGCs (immunoblot) (HSP72 [2]): inhibited
- effect on number of TUNEL positive cells (in words) [3]: reversed
- effect on density of DTMR-labeled RGCs (in words) [4]: abolished the protective effect

SMILES: OCC1OC(O)CC(O)C1O [2DG, 2-deoxy-D-gluycose]
- protection of retinal ganglion cells (retinal ganglion cells): ineffective
